# What was measured:
# [1] = target: CtermHisTag-mEGFR Wild type (Homo sapiens, UniProt P00533); test: TR-FRET probe displacement assay, EGFR wild type; type: binding; conditions: EGFR wild type 1.25 nM, probe 100 nM, 30 mins room temperature
# Summary of the method: (§1)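 Ten-point compound series, 100000 to 3 nM final, tested against His-tagged EGFR (wild type or C797S/L858R/T790M) for probe displacement. TR-FRET read at Ex337 nm, Em490/520 nm; run in technical replicate, biological duplicate.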
# [2] = target: T1, Phospho-EGFR (Tyr1068) in H1975 cells (Homo sapiens, UniProt P00533, L858R/T790M); test: HTRF pEGFR/total EGFR assay in H1975 cells; type: cell-based; conditions: compound 3 hours, ratio pEGFR/total EGFR
# T1 construct: host or cells: H1975
# T1 sequence (P00533 25-1210 T790M/L858R): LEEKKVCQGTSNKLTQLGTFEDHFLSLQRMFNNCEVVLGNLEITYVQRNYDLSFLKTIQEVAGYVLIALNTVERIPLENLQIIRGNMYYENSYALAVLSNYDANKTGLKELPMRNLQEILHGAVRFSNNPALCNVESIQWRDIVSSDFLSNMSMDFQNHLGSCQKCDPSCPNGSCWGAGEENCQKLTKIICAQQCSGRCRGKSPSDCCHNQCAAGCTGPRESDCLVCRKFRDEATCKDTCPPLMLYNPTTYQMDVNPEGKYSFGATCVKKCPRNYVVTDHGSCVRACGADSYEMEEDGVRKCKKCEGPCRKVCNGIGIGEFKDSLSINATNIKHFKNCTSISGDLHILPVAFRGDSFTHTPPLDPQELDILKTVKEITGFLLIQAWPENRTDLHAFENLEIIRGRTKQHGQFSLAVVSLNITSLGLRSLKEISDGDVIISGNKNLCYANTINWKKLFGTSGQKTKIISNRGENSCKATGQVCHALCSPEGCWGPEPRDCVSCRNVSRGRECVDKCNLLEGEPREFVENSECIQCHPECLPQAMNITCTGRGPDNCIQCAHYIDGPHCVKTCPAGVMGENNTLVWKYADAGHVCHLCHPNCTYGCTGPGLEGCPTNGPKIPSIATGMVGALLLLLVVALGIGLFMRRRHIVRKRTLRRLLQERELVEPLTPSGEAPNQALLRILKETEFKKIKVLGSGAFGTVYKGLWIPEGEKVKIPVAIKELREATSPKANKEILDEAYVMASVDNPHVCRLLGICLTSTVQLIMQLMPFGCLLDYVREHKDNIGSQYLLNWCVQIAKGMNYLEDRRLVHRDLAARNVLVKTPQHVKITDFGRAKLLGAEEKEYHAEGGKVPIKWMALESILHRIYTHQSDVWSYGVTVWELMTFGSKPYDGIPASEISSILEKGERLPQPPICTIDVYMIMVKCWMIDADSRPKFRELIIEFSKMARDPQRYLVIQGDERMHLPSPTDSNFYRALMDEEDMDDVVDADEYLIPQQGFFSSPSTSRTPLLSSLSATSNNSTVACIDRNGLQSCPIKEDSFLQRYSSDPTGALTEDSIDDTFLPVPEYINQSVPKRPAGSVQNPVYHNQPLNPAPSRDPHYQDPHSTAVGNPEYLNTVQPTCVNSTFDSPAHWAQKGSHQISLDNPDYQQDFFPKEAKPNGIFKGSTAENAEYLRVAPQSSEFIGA
# Summary of the method: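 H1975 cells (EGFR L858R/T790M) adhered 24 h, then compound-treated for 3 h in duplicate, 0.1% DMSO final. Lysates read by HTRF at 665/620 nm for phospho-Tyr1068 and total EGFR. Value is pEGFR/total EGFR ratio as % of 0 uM control.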
# [3] = target: T2, Phospho-EGFR (Tyr1068) in A431 cells (Homo sapiens, UniProt P00533); test: HTRF pEGFR/total EGFR assay in A431 cells (EGF stimulated); type: cell-based; conditions: compound 2.5 hours then 100 ng/ml EGF 30 mins, ratio pEGFR/total EGFR
# T2 construct: endogenous in cells; host or cells: A431
# T2 sequence (P00533 25-1210): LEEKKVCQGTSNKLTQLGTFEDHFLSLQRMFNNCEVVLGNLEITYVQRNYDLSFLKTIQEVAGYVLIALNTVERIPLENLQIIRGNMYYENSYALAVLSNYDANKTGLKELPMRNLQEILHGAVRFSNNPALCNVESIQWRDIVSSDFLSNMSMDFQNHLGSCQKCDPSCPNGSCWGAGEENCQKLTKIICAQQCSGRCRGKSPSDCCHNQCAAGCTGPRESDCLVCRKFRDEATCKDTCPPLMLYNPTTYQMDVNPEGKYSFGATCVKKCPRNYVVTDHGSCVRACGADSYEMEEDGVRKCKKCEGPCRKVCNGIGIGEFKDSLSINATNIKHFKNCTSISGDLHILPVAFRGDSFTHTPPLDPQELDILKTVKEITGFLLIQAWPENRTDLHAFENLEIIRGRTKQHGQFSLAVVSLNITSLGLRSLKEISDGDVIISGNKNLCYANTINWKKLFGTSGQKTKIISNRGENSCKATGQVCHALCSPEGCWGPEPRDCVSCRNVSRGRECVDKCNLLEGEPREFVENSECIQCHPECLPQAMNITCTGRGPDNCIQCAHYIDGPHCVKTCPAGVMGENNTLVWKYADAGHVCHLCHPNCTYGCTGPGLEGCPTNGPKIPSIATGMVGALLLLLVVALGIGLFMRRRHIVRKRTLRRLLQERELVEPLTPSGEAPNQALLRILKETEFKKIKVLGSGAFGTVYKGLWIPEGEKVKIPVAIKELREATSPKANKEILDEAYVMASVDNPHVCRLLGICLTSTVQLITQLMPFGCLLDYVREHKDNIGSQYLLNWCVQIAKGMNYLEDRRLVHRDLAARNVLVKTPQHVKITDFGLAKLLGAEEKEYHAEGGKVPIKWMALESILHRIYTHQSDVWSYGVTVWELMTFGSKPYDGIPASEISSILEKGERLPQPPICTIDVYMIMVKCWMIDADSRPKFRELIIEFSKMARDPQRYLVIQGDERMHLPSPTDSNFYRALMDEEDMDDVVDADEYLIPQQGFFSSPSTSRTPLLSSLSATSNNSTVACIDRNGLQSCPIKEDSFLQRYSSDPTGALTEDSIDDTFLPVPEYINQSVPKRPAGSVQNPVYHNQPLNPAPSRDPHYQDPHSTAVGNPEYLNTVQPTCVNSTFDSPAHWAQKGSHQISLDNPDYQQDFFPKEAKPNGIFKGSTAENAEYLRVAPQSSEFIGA
# Summary of the method: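 A431 cells pretreated with compounds 2.5 h (0.1% DMSO), then stimulated with 100 ng/ml EGF for 30 min. Lysates assayed by HTRF for phospho-EGFR (Tyr1068) and total EGFR, read at 665/620 nm. Values are pEGFR/total EGFR ratio as percentage of 0uM control.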
# [4] = target: CtermHisTag-mEGFR Triple Mutant - C797S, L858R, T790M (Homo sapiens, UniProt P00533, C797S/L858R/T790M); test: TR-FRET probe displacement assay, EGFR triple mutant; type: binding; conditions: T790M 1.25 nM, probe 100 nM, 30 mins room temperature
# Sequence of CtermHisTag-mEGFR Triple Mutant - C797S, L858R, T790M (P00533 25-1210 T790M/C797S/L858R): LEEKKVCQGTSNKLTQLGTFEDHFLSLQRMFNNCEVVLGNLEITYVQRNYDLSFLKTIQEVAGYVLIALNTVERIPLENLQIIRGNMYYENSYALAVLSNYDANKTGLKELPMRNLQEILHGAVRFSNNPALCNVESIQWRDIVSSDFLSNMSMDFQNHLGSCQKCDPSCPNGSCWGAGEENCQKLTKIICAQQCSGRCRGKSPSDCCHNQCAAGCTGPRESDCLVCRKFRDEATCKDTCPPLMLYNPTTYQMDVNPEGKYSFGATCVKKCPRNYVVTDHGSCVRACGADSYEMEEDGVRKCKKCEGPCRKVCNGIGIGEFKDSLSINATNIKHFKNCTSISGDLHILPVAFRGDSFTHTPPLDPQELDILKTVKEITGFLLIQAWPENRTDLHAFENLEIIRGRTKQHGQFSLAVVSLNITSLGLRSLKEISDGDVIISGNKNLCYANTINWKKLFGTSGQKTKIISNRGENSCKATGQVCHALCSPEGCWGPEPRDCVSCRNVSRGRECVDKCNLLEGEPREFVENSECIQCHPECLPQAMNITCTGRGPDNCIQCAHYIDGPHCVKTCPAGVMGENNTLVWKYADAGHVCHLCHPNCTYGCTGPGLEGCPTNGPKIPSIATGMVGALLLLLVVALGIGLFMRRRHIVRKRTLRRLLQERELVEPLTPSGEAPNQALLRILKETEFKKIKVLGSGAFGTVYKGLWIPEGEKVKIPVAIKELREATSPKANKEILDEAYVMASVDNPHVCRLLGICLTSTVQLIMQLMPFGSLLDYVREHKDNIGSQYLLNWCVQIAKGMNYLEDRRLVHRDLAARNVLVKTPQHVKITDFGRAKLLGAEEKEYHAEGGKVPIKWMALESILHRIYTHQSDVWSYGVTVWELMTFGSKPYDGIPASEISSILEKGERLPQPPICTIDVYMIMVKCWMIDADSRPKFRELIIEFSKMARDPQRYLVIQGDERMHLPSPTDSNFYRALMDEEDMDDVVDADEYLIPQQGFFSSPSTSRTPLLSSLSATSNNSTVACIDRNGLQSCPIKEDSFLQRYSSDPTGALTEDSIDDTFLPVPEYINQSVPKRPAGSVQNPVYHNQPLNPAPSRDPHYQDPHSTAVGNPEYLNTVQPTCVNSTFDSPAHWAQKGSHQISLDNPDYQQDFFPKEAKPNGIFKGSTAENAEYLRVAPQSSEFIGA
# Summary of the method: as §1
# [5] = target: T3, Phospho-EGFR (Tyr1068) in H1975 C797S cells (Homo sapiens, UniProt P00533, C797S/L858R/T790M); test: HTRF pEGFR/total EGFR assay in H1975 C797S cells; type: cell-based; conditions: H1975 C797S cells (CRISPR), compound 3 hours, ratio pEGFR/total EGFR
# T3 construct: endogenous in cells; host or cells: H1975 C797S (CRISPR-edited in house from ATCC CRL-5908)
# Summary of the method: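 H1975 cells carrying CRISPR-engineered EGFR C797S (with L858R/T790M) were exposed to compounds for 3 h at 0.1% DMSO, in duplicate. Lysates were read with HTRF kits for pEGFR Tyr1068 and total EGFR at 665/620 nm. Values are the pEGFR/total EGFR ratio as percent of the 0 uM control.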
# Sequence of CtermHisTag-mEGFR Wild type (P00533 25-1210): as the sequence (P00533 25-1210) above
SMILES,IC50 [1],IC50 [2],IC50 [3],IC50 [4],IC50 [5]
C#Cc1cc(NC(=O)NC2CN(C(C)=O)C2)nc2nc(Nc3ccc(N4CCN(C)CC4)cc3)ncc12 [Example 54],1 to 10 µM,> 3 µM,> 3 µM,< 0.02 µM,> 3 µM
"C#Cc1cc(NC(=O)NCC2COC2)nc2nc(Nc3ccc(N4CCN(C)CC4)cc3)ncc12 [Example 55, 1-(5-ethynyl-2-{[4-(4-methylpiperazin-1-yl)phenyl]amino}pyrido[2,3-d]pyrimidin-7-yl)-3-(oxetan-3-ylmethyl)urea]",< 1 µM,< 0.5 µM,> 3 µM,< 0.02 µM,< 0.5 µM
"C#Cc1cc(NC(=O)N2CCCC2)nc2nc(Nc3ccc(N4CCN(C)CC4)cc3)ncc12 [Example 56, N-(5-ethynyl-2-{[4-(4-methylpiperazin-1-yl)phenyl]amino}pyrido[2,3-d]pyrimidin-7-yl)pyrrolidine-1-carboxamide]",> 10 µM,1 to 3 µM,> 3 µM,0.1 to 1 µM,> 3 µM
"C#Cc1cc(NC(=O)NC2CN(S(C)(=O)=O)C2)nc2nc(Nc3ccc(N4CCN(C)CC4)cc3)ncc12 [Example 57, 1-(5-ethynyl-2-{[4-(4-methylpiperazin-1-yl)phenyl]amino}pyrido[2,3-d]pyrimidin-7-yl)-3-(1-methanesulfonylazetidin-3-yl)urea]",< 1 µM,> 3 µM,> 3 µM,< 0.02 µM,> 3 µM
"C#Cc1cc(NC(=O)N2Cc3ccccc3C2)nc2nc(Nc3ccc(N4CCN(C)CC4)cc3)ncc12 [Example 58, N-(5-ethynyl-2-{[4-(4-methylpiperazin-1-yl)phenyl]amino}pyrido[2,3-d]pyrimidin-7-yl)-1,3-dihydroisoindole-2-carboxamide]",> 10 µM,> 3 µM,> 3 µM,0.1 to 1 µM,> 3 µM
"C#Cc1cc(NC(=O)Nc2ncc[nH]2)nc2nc(Nc3ccc(N4CCN(C)CC4)cc3)ncc12 [Example 59, 1-(5-ethynyl-2-{[4-(4-methylpiperazin-1-yl)phenyl]amino}pyrido[2,3-d]pyrimidin-7-yl)-3-(1H-imidazol-2-yl)urea]",< 1 µM,1 to 3 µM,> 3 µM,< 0.02 µM,1 to 3 µM
"C#Cc1cc(NC(=O)NC2(C(F)(F)F)CCCC2)nc2nc(Nc3ccc(N4CCN(C)CC4)cc3)ncc12 [Example 60, 1-(5-ethynyl-2-((4-(4-methylpiperazin-1-yl)phenyl)amino)pyrido[2,3-d]pyrimidin-7-yl)-3-(1-(trifluoromethyl)cyclopentyl)urea]",< 1 µM,< 0.5 µM,< 0.5 µM,< 0.02 µM,< 0.5 µM
"C#Cc1cc(NC(=O)NC2(C)COC2)nc2nc(Nc3ccc(N4CCN(C)CC4)cc3)ncc12 [Example 61, 1-(5-ethynyl-2-((4-(4-methylpiperazin-1-yl)phenyl)amino)pyrido[2,3-d]pyrimidin-7-yl)-3-(3-methyloxetan-3-yl)urea]",< 1 µM,< 0.5 µM,> 3 µM,< 0.02 µM,< 0.5 µM
C#Cc1cc(NC(=O)NC2(C)CCOC2)nc2nc(Nc3ccc(N4CCN(C)CC4)cc3)ncc12 (centres unmarked) [Example 62],< 1 µM,< 0.5 µM,0.5 to 1 µM,< 0.02 µM,< 0.5 µM
C#Cc1cc(NC(=O)NC2CCCC2)nc2nc(Nc3ccc(N4CCN(C)CC4)c(NCC4CCC4)c3)ncc12 [Example 63],< 1 µM,< 0.5 µM,< 0.5 µM,0.02 to 0.1 µM,1 to 3 µM
"C#Cc1cc(N2C(=O)NCC2C(C)C)nc2nc(Nc3ccc(N4CCN(C)CC4)cc3)ncc12 (centres unmarked) [Example 64, 1-(5-ethynyl-2-{[4-(4-methylpiperazin-1-yl)phenyl]amino}pyrido[2,3-d]pyrimidin-7-yl)-5-isopropylmidazolidin-2-one]",1 to 10 µM,< 0.5 µM,< 0.5 µM,< 0.02 µM,1 to 3 µM
"C#Cc1cc(NC(=O)OC2CCCC2)nc2nc(Nc3ccc(N4CCN(C)CC4)cc3)ncc12 [Example 65, cyclopentyl (5-ethynyl-2-((4-(4-methylpiperazin-1-yl)phenyl)amino)pyrido[2,3-d]pyrimidin-7-yl)carbamate]",> 10 µM,1 to 3 µM,> 3 µM,0.1 to 1 µM,> 3 µM
"C#Cc1cc(NC(=O)OC2CCCCC2)nc2nc(Nc3ccc(N4CCN(C)CC4)cc3)ncc12 [Example 66, cyclohexyl (5-ethynyl-2-((4-(4-methylpiperazin-1-yl)phenyl)amino)pyrido[2,3-d]pyrimidin-7-yl)carbamate]",> 10 µM,> 3 µM,> 3 µM,0.1 to 1 µM,> 3 µM
"C#Cc1cc(NC(=O)OCc2ccccc2)nc2nc(Nc3ccc(N4CCN(C)CC4)cc3)ncc12 [Example 67, benzyl (5-ethynyl-2-((4-(4-methylpiperazin-1-yl)phenyl)amino)pyrido[2,3-d]pyrimidin-7-yl)carbamate]",> 10 µM,> 3 µM,> 3 µM,1 to 50 µM,> 3 µM
"C#Cc1cc(N2C(=O)OCC2C(C)C)nc2nc(Nc3ccc(N4CCN(C)CC4)cc3)ncc12 (centres unmarked) [Example 68, 3-(5-ethynyl-2-{[4-(4-methylpiperazin-1-yl)phenyl]amino}pyrido[2,3-d]pyrimidin-7-yl)-4-isopropyl-1.3-oxazolidin-2-one]",1 to 10 µM,< 0.5 µM,> 3 µM,< 0.02 µM,1 to 3 µM
"C#Cc1cc(N2C(=O)OC[C@H]2C(C)C)nc2nc(Nc3ccc(N4CCN(C)CC4)cc3)ncc12 [Example 69, (4R)-3-(5-ethynyl-2-{[4-(4-methylpiperazin-1-yl)phenyl]amino}pyrido[2,3-d]pyrimidin-7-yl)-4-isopropyl-1,3-oxazolidin-2-one]",> 10 µM,0.5 to 1 µM,> 3 µM,< 0.02 µM,0.5 to 1 µM
"C#Cc1cc(N2C(=O)OC[C@@H]2C(C)C)nc2nc(Nc3ccc(N4CCN(C)CC4)cc3)ncc12 [Example 70, (4S)-3-(5-ethynyl-2-{[4-(4-methylpiperazin-1-yl)phenyl]amino}pyrido[2,3-d]pyrimidin-7-yl)-4-isopropyl-1,3-oxazolidin-2-one]",< 1 µM,0.5 to 1 µM,0.5 to 1 µM,< 0.02 µM,> 3 µM
"C#Cc1cc(N2CCOC2=O)nc2nc(Nc3ccc(N4CCN(C)CC4)cc3)ncc12 [Example 71, 3-(5-ethynyl-2-{[4-(4-methylpiperazin-1-yl)phenyl]amino}pyrido[2,3-d]pyrimidin-7-yl)-1,3-oxazolidin-2-one]",< 1 µM,1 to 3 µM,1 to 3 µM,< 0.02 µM,> 3 µM
"C#Cc1c(C)c(NC(=O)NC2CCCC2)nc2nc(Nc3ccc(N4CCN(C)CC4)cc3)ncc12 [Example 72, 3-Cyclopentyl-1-(5-ethynyl-6-methyl-2-{[4-(4-methylpiperazin-1-yl)phenyl]amino}pyrido[2,3-d]pyrimidin-7-yl)urea]",< 1 µM,0.5 to 1 µM,> 3 µM,< 0.02 µM,1 to 3 µM
"C#Cc1cc(N(C)C(=O)NC2CCCC2)nc2nc(Nc3ccc(N4CCN(C)CC4)cc3)ncc12 [Example 73, 3-Cyclopentyl-1-(5-ethynyl-2-{[4-(4-methylpiperazin-1-yl)phenyl]amino}pyrido[2,3-d]pyrimidin-7-yl)-1-methylurea]",< 1 µM,< 0.5 µM,> 3 µM,< 0.02 µM,< 0.5 µM
"C#Cc1cc(NC(=O)N(C)C2CCCC2)nc2nc(Nc3ccc(N4CCN(C)CC4)cc3)ncc12 [Example 74, 3-Cyclopentyl-1-(5-ethynyl-2-{[4-(4-methylpiperazin-1-yl)phenyl]amino}pyrido[2,3-d]pyrimidin-7-yl)-3-methylurea]",1 to 10 µM,> 3 µM,> 3 µM,0.1 to 1 µM,> 3 µM
C#Cc1cc(NC(=O)NC2CCCC2)nc2nc(Nc3ccc(N4CCOCC4)cc3)ncc12 [Example 75],< 1 µM,< 0.5 µM,< 0.5 µM,< 0.02 µM,< 0.5 µM
